Reference: US20240246942A1, “KINASE INHIBITORS FOR THE TREATMENT OF NEURODEGENERATIVE DISEASES” (priority 2020, published 2024)

Experiments:
Experiment in all cases: biochemical
[1] = target: T1, panel of 374 wild-type kinases (Homo sapiens, UniProt O15075); conditions: read-out: % Enzyme Activity (relative to DMSO controls), DCAMKL1
T1 construct: purchased Reaction Biology Corporation
T1 sequence (O15075 1-740): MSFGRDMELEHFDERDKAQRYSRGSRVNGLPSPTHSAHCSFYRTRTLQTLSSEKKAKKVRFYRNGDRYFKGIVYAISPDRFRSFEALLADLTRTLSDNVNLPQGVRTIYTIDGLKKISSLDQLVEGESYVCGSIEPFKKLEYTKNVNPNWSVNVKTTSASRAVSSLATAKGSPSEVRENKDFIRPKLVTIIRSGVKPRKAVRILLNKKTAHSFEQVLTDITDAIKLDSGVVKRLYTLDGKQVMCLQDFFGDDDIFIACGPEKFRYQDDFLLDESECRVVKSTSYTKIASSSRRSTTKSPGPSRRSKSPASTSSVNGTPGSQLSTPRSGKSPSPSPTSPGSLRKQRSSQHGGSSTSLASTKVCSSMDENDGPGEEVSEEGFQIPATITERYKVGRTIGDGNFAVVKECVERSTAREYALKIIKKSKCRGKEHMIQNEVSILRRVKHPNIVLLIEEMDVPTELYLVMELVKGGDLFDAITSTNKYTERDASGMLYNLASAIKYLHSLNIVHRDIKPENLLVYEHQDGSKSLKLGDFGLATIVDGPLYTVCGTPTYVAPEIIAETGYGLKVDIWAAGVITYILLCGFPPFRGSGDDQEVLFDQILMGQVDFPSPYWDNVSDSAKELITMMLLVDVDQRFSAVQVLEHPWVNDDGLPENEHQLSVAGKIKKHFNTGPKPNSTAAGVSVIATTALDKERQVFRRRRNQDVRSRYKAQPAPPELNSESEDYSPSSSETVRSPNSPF

[2] = target: T2, panel of 374 wild-type kinases (Homo sapiens, UniProt P52564); conditions: read-out: % Enzyme Activity (relative to DMSO controls), MKK6
T2 construct: purchased Reaction Biology Corporation
T2 sequence (P52564 1-334): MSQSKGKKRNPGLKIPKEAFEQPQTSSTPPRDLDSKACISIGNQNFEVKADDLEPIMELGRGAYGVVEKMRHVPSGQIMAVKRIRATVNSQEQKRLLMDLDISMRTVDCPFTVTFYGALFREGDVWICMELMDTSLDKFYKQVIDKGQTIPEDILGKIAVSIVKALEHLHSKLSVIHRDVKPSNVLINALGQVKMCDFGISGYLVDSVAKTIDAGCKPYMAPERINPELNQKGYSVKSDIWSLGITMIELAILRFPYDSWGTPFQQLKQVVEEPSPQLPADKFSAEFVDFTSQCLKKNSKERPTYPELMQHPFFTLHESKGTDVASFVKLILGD

[3] = target: T3, panel of 374 wild-type kinases (Homo sapiens, UniProt Q15139); conditions: read-out: % Enzyme Activity (relative to DMSO controls), kinase PKCmu/PRKD1
T3 construct: purchased Reaction Biology Corporation
T3 sequence (Q15139 1-912): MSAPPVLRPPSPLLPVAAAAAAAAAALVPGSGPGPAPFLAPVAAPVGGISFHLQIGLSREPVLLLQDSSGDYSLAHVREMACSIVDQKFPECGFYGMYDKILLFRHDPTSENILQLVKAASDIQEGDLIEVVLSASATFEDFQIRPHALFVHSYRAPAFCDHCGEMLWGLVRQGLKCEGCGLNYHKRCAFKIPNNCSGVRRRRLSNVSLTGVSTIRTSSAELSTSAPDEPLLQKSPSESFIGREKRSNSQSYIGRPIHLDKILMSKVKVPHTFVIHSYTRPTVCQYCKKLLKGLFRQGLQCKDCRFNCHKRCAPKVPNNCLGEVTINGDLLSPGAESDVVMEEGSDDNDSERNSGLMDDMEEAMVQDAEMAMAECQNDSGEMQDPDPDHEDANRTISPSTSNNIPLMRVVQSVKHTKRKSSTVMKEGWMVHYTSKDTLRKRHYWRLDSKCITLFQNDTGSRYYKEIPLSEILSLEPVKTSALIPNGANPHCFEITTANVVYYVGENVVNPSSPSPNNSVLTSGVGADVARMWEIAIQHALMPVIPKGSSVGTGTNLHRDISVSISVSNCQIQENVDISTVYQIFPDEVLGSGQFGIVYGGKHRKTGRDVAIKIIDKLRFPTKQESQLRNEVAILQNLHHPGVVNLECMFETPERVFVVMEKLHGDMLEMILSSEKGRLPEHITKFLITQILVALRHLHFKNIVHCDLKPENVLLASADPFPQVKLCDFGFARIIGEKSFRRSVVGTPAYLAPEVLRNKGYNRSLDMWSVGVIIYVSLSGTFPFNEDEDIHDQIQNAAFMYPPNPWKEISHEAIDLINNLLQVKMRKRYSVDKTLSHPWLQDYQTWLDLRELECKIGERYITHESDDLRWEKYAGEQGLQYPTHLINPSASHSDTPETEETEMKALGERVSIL

[4] = target: T4, panel of 374 wild-type kinases (Homo sapiens, UniProt Q9BZL6); conditions: read-out: % Enzyme Activity (relative to DMSO controls), kinase PKD2/PRKD2
T4 construct: purchased Reaction Biology Corporation
T4 sequence (Q9BZL6 1-878): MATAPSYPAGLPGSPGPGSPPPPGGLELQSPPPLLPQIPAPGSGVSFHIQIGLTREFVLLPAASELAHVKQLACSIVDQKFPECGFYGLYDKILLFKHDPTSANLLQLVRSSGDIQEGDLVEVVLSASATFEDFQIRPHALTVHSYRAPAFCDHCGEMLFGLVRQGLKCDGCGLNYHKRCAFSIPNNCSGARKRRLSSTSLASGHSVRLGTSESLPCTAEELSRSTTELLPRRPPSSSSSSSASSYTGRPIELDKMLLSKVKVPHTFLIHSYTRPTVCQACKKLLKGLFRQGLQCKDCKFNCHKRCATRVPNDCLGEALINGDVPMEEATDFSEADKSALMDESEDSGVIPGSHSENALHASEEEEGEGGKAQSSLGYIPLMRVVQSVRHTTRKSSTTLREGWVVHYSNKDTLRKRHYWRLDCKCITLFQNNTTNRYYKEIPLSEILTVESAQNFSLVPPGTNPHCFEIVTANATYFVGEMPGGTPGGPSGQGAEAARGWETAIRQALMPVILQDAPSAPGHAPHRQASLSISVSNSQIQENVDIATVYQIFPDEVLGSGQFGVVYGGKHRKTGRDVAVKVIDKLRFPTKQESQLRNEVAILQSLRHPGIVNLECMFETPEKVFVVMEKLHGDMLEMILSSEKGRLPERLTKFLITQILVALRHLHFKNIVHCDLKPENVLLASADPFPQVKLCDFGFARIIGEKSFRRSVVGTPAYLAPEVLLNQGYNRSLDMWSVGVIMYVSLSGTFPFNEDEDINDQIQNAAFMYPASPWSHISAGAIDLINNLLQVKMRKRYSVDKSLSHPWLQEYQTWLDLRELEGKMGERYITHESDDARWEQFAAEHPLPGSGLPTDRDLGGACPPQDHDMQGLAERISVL

O=C(Nc1cnn(-c2csc(C(=O)NC3COC3)c2)c1)Nc1c(F)cccc1Cl [Compound 25, 4-(4-(3-(2-chloro-6-fluorophenyl)ureido)-1H-pyrazol-1-yl)-N-(oxetan-3-yl)thiophene-2-carboxamide]
remaining activity at 5 µM [1]: 84.2% | remaining activity at 5 µM [2]: 94.4% | remaining activity at 5 µM [3]: 90.7% | remaining activity at 5 µM [4]: 102%

O=C(Nc1cnn(-c2csc(C(=O)NC3COC3)c2)c1)Nc1ccccc1Cl [Compound 17, 4-(4-(3-(2-chlorophenyl)ureido)-1H-pyrazol-1-yl)-N-(oxetan-3-yl)thiophene-2-carboxamide]
remaining activity at 5 µM [1]: 99.2% | remaining activity at 5 µM [2]: 96.4% | remaining activity at 5 µM [3]: 114% | remaining activity at 5 µM [4]: 94.9%

Cc1sc(C(=O)NC2COC2)cc1-n1cc(NC(=O)Nc2c(F)cccc2Cl)cn1 [Compound 27, 4-(4-(3-(2-chloro-6-fluorophenyl)ureido)-1H-pyrazol-1-yl)-5-methyl-N-(oxetan-3-yl)thiophene-2-carboxamide]
remaining activity at 10 µM ([1]; 10 uM): 67.2% | remaining activity at 10 µM ([2]; 10 uM): 86.4% | remaining activity at 10 µM ([3]; 10 uM): 93.3% | remaining activity at 10 µM ([4]; 10 uM): 95.7%
